The source of these data is patent US20260355239A1, “COMBINATION OF A T CELL THERAPY AND CONTINUOUS OR INTERMITTENT DGK INHIBITOR DOSING” (Juno Therapeutics, Inc., priority 2022, published 2026).

pEC50: −log10 of the molar value.

Test [1] has as its system Human venous whole blood. Description: Human Whole Blood IFN-γ Assay. It is filed as cell-based. Conditions: anti-CD3 + anti-CD28, 24 h, normalized to 3 μM reference compound, read-out: INFg Whole Blood Normalized-Agonist EC50. As to the method:
9. Human Whole Blood IFN-γ Assay
Human venous whole blood (22.5 μL per well), obtained from healthy donors, was pre-treated with compounds for one hour at 37 °C in a humidified 95% air/5% CO2 incubator. The blood was stimulated with 2.5 μL anti-human CD3 and anti-CD28 mAb at a final concentration of 1 μg/mL each for 24 hours at 37 °C. IFN-γ in the supernatants was measured using AlphLISA kit (Cat #AL217).

Test [2] has as its system naïve human CD8 T cells. Nature of the test: Human CD8 T Cells IFN-γ Assay. Conditions: anti-CD3 + anti-CD28, 20 h, normalized to 3 μM reference compound, read-out: HuCD8 INFG Normalized EC50. It counts as cell-based. As to the method: 7. Human CD8 T Cells IFN-γ Assay
Frozen naïve human CD8 T cells were thawed in AIM-V media, incubated for 2 h in 37 °C, and counted. The 384-well tissue culture plate was coated overnight at 4 °C with 20 μL anti-human CD3 at […] in PBS, which was removed off the plate before 40,000 cells per 40 microliters CD8 T cells with 0.1 μg/mL soluble anti-human CD28 were added to each well. The compounds were transferred using an Echo liquid handler to the cell plate immediately after the cells were plated. After 20 h incubation at 37 °C incubator, 3 microliters per well supernatants transferred into a new 384-well white assay plate for cytokine measurement.
Interferon-γ (IFN-γ) was quantitated using the AlphLISA kit (Cat #AL217) as described by the manufacturer manual (Perkin Elmer). The counts from each well were converted to IFN-γ concentration (pg/mL).

The test system of test [3] is OT-1 CD8+ T cells with MC38 tumor cells. Description: Murine Cytotoxic T Lymphocyte Assay (IFN-γ). It counts as cell-based, mouse. Conditions: OT-1 CTL with SIINFEKL-pulsed MC38 cells, 24 h; read-out: msCTL INFg IC50. An excerpt: 5. Murine Cytotoxic T Lymphocyte Assay
An antigen-specific cytolytic T-cell (CTL) assay was developed to evaluate functionally the ability of DGKα and DGKζ inhibitors to enhance effector T cell mediated tumor cell killing activity. CD8^+ T-cells isolated from the OT-1 transgenic mouse recognize antigen presenting cells, MC38, that present the ovalbumin derived peptide […]. Recognition of the cognate antigen initiates the cytolytic activity of the OT-1 antigen-specific CD8+ T cells.
Functional CTL cells were generated as follows: OT-1 splenocytes from 8-12 week old mice were isolated and expanded in the presence of the […] peptide at 1 μg/mL and mIL2 at 10 U/mL. After three days, fresh media with […] was added. On day 5 of the expansion, the CD8+ T cells were isolated and ready for use. Activated CTL cells may be stored frozen for 6 months. Separately, one million MC38 tumor cells were pulsed with 1 μg/mL of […]-OVA peptide for 3 hours at 37 °C. The cells were washed (3×) with fresh media to remove excess peptide. Finally, CTL cells that were pretreated with DGK inhibitors for 1 hour in a 96-well U bottom plate were combined with the antigen loaded MC38 tumor cells at a 1:10 ratio. The cells were then spun at 700 rpm for 5 min and placed in an incubator overnight at 37 °C After 24 hours, the supernatant was collected for analysis of IFN-γ cytokine levels by AlphaLisa purchased from Perkin Elmer.

With `C[C@@H]1CN(c2nc(=O)n(C)c3ccc(C#N)nc23)[C@@H](C)CN1C(c1ccc(F)cc1)c1ccc(C(F)(F)F)cn1` (stereo partly drawn) [Compound 28, 4-((2S,5R)-4-((4-fluorophenyl)(5-(trifluoromethyl)pyridin-2-yl)methyl)-2,5-dimethylpiperazin-1-yl)-1-methyl-2-oxo-1,2-dihydropyrido[3,2-d]pyrimidine-6-carbonitrile], the pEC50 in test [1] is 6.62.
As for `COC(=O)C1CN(c2cc(=O)n(C)c3ccc(C#N)nc23)CCN1C(c1ccc(F)cc1)c1ccc(F)cc1` (centres unmarked) [Compound 2, Methyl 1-(bis(4-fluorophenyl)methyl)-4-(6-cyano-1-methyl-2-oxo-1,2-dihydro-1,5-naphthyridin-4-yl)piperazine-2-carboxylate], the pEC50 was 6.28 in test [1], 7.21 in test [2] and 7.19 in test [3].
In the same order, the values of `Cc1ccc(C(c2ccc(C)cc2)N2C[C@H](C)N(c3cc(=O)n(C)c4ccc(C#N)nc34)C[C@H]2C)cc1` [Compound 16, 8-[(2S,5R)-4-[bis(4-methylphenyl)methyl]-2,5-dimethylpiperazin-1-yl]-5-methyl-6-oxo-5,6-dihydro-1,5-naphthyridine-2-carbonitrile] are 6.28, 8.02 and 7.14.
As to `CC[C@@H]1CN(c2nc(=O)n(C)c3ccc(C#N)nc23)[C@@H](C)CN1C(c1ccc(F)cc1)c1ccc(C(F)(F)F)cn1` (stereo partly drawn) [Compound 22, 4-((2S,5R)-5-Ethyl-4-((4-fluorophenyl)(5-(trifluoromethyl)pyridin-2-yl)methyl)-2-methylpiperazin-1-yl)-1-methyl-2-oxo-1,2-dihydropyrido[3,2-d]pyrimidine-6-carbonitrile], the pEC50 in test [1] is 7.70.
Turning to `C[C@@H]1CN(c2c(C#N)c(=O)n(C)c3ccc(C#N)nc23)CCN1C(c1ccc(F)cc1)c1ccc(F)cc1` [Compound 4, (R)-8-(4-(bis(4-fluorophenyl)methyl)-3-methylpiperazin-1-yl)-5-methyl-6-oxo-5,6-dihydro-1,5-naphthyridine-2,7-dicarbonitrile], the pEC50 in test [1] is 6.40; in test [2] it was 7.77; in test [3], 7.37.
Consider `CC(c1c(F)cccc1F)N1C[C@H](C)N(c2cc(=O)n(C)c3ccc(C#N)nc23)C[C@H]1C` (stereo partly drawn) [Compound 11, 8-[(2S,5R)-4-[1-(2,6-difluorophenyl)ethyl]-2,5-dimethylpiperazin-1-yl]-5-methyl-6-oxo-5,6-dihydro-1,5-naphthyridine-2-carbonitrile], for which the figures for the pEC50 in test [1] and in test [2] were 6.19 and 7.66, respectively.
For the molecule `CC[C@H]1CN(C(c2ccc(F)cc2)c2nc(C3CC3)no2)[C@H](CC)CN1c1nc(=O)n(C)c2ccc(C#N)nc12` (some centres unmarked) [Compound 26], in test [1], the pEC50 was 7.05.
The same measure, in the same setting: then `CC[C@@H]1CN(c2nc(=O)n(C)c3ccc(C#N)nc23)[C@@H](C)CN1C(C)c1ccc(C(F)(F)F)cc1` (stereo partly drawn) [Compound 20, 4-((2S,5R)-5-Ethyl-2-methyl-4-(1-(4-(trifluoromethyl)phenyl)ethyl)piperazin-1-yl)-1-methyl-2-oxo-1,2-dihydropyrido[3,2-d]pyrimidine-6-carbonitrile], with 7.49; and `CC[C@@H]1CN(c2nc(=O)n(C)c3ccc(C#N)nc23)[C@@H](C)CN1C(c1ccc(Cl)cc1)c1ccccn1` (some centres unmarked) [Compound 23], with 4.98; and `CC[C@@H]1CN(c2nc(=O)n(C)c3ccc(C#N)nc23)[C@@H](C)CN1C(C)c1ccc(C(F)(F)F)cc1` (stereo partly drawn) [Compound 19, 4-((2S,5R)-5-Ethyl-2-methyl-4-(1-(4-(trifluoromethyl)phenyl)ethyl)piperazin-1-yl)-1-methyl-2-oxo-1,2-dihydropyrido[3,2-d]pyrimidine-6-carbonitrile], with 6.28.
On the same count and under the same terms, then `CC[C@@H]1CN(c2nc(=O)n(C)c3ccc(C#N)nc23)[C@@H](C)CN1C(c1ccc(F)cc1)c1ccc(C(F)(F)F)cn1` (stereo partly drawn) [Compound 21, 4-((2S,5R)-5-Ethyl-4-((4-fluorophenyl)(5-(trifluoromethyl)pyridin-2-yl)methyl)-2-methylpiperazin-1-yl)-1-methyl-2-oxo-1,2-dihydropyrido[3,2-d]pyrimidine-6-carbonitrile], with 7.37.
`COc1ccc2c(n1)c(N1C[C@@H](C)N(C(c3ccc(F)cc3)c3ccc(Cl)cc3)C[C@@H]1C)cc(=O)n2C` (stereo partly drawn) [Compound 8, 4-[(2S,5R)-4-[(4-chlorophenyl)(4-fluorophenyl)methyl]-2,5-dimethylpiperazin-1-yl]-6-methoxy-1-methyl-1,2-dihydro-1,5-naphthyridin-2-one]: the pEC50 in test [2] was 4.92.
Consider `C[C@@H]1CN(c2cc(=O)n(C)c3ccc(C#N)nc23)[C@@H](C)CN1Cc1ccc(F)cc1C(F)F` [Compound 9, 8-[(2S,5R)-4-{[2-(difluoromethyl)-4-fluorophenyl]methyl}-2,5-dimethylpiperazin-1-yl]-5-methyl-6-oxo-5,6-dihydro-1,5-naphthyridine-2-carbonitrile], for which the pEC50 is 5.82 in test [1] and 6.77 in test [2].
Regarding `C[C@@H]1CN(c2cc(=O)n(C)c3ccc(C#N)nc23)[C@@H](C)CN1C(c1ccccc1)c1ccc(F)cc1` (stereo partly drawn) [Compound 5, 8-[(2S,5R)-4-[(4-fluorophenyl) (phenyl)methyl]-2,5-dimethylpiperazin-1-yl]-5-methyl-6-oxo-5,6-dihydro-1,5-naphthyridine-2-carbonitrile], the results for the pEC50 in test [1] and in test [2] were 6.17 and 7.52, respectively.
In the same order, the values of `CCC(c1ccc(F)cc1F)N1C[C@H](C)N(c2cc(=O)n(C)c3ccc(C#N)nc23)C[C@H]1C` (stereo partly drawn) [Compound 12, 8-((2S,5R)-4-(1-(2,4-difluorophenyl)propyl)-2,5-dimethylpiperazin-1-yl)-5-methyl-6-oxo-5,6-dihydro-1,5-naphthyridine-2-carbonitrile] are 6.36 and 7.32.
With `Cc1ccc(C(c2ccc(F)cc2)N2C[C@H](C)N(c3cc(=O)n(C)c4ccc(C#N)nc34)C[C@H]2C)cc1` (stereo partly drawn) [Compound 10, 8-[(2S,5R)-4-[(4-fluorophenyl)(4-methylphenyl)methyl]-2,5-dimethylpiperazin-1-yl]-5-methyl-6-oxo-5,6-dihydro-1,5-naphthyridine-2-carbonitrile], the figures for the pEC50 in test [1], in test [2] and in test [3] were 6.36, 7.64 and 7.49, respectively.
As for `CC[C@H]1CN(C(c2ccc(F)cc2)c2nc(C3CC3)no2)[C@H](CC)CN1c1nc(=O)n(C)c2ccc(C#N)nc12` (some centres unmarked) [Compound 25], in test [1], the pEC50 is 7.82.
Still for that read-out and setting: as for `CCC(c1ccc(C(F)(F)F)cc1)N1C[C@H](CC)N(c2nc(=O)n(C)c3ccc(C#N)nc23)C[C@H]1CC` (stereo partly drawn) [Compound 18, 4-((2S,5R)-2,5-Diethyl-4-(1-(4-(trifluoromethyl)phenyl)propyl)piperazin-1-yl)-1-methyl-2-oxo-1,2-dihydropyrido[3,2-d]pyrimidine-6-carbonitrile], the figure is 5.43; as for `CC[C@@H]1CN(c2nc(=O)n(C)c3ccc(C#N)nc23)[C@@H](C)CN1C(c1ccc(Cl)cc1)c1ccccn1` (some centres unmarked) [Compound 24], 6.70; as for `CCC[C@@H]1CN(c2nc(=O)n(C)c3ccc(C#N)nc23)[C@@H](C)CN1C(C)c1ccc(C(F)(F)F)cc1` (stereo partly drawn) [Compound 33, 1-Methyl-4-((2S,5R)-2-methyl-5-propyl-4-(1-(4-(trifluoromethyl)phenyl)ethyl)piperazin-1-yl)-2-oxo-1,2-dihydropyrido[3,2-d]pyrimidine-6-carbonitrile], 4.70.
